Measurements published in US9828333B2, “Compounds for the treatment of influenza” (CHRISTIAN-ALBRECHTS-UNIVERSITAT ZU KIEL, priority 2011, dated 2017).

Assays:
[1] = molecular target: neuraminidase of influenza A virus A/342/2009 (H1N1, oseltamivir resistant) (UniProt P03468); type: biochemical
[2] = test system: influenza A virus A/342/2009 (H1N1; oseltamivir-resistant); type: cell-based

For `CCC(CC)O[C@@H]1C=C(C(=O)O)C[C@H](NC(C)=N)[C@H]1NC(C)=O` [Compound 3], the “50% inhibitory concentration higher compared to zanamivir” value [1] was 50 fold, the “90% inhibitory concentration, A/342/2009” value [2] was 16.0 (22.3) μM and the “95% inhibitory concentration (values in parentheses), A/342/2009” value [2] was 16.0 (22.3) μM.
For `CCC(CC)O[C@@H]1C=C(C(=O)O)C[C@H](NC(=N)N)[C@H]1NC(C)=O` [Compound 9, (3R,4R,5S)-4-acetamido-5-(N-guanidino)-3-(1-ethylpropoxy)cyclohex-1-en-1-carboxylic acid], the “90% inhibitory concentration, A/342/2009” value [2] was 3.0 (14.2) μM and the “95% inhibitory concentration (values in parentheses), A/342/2009” value [2] was 3.0 (14.2) μM.
With `CCOC(=O)C1=C[C@@H](OC(CC)CC)[C@H](NC(C)=O)[C@@H](N)C1` [Oseltamivir, (3R,4R,5S)-4-acetamido-5-amino-3-(1-ethylpropoxy)cyclohex-1-en-1-carboxylic acid ethyl ester, reference compound] the “90% inhibitory concentration, A/342/2009” value [2] was “resistant”.
